Experiments:
[1] = test system: bacterial reverse mutation; assay: Bacterial reverse mutation study; conditions: with and without exogenous metabolic activation
Protocol: Genotoxicity was assessed in a battery of in vitro and in vivo studies that included a bacterial reverse mutation study, a chromosome aberration study in Chinese hamster ovary (CHO) cells, and a micronucleus study in rats by the oral route. The in vitro studies were performed in the presence and absence of an exogenous metabolic activation system.

HT1080 cells [2] = assay: Cell cycle analysis by propidium iodide flow cytometry in HT1080 cells (S-phase accumulation, Table 24); format: cell-based, human; conditions: HT1080, normoxic, 18 hours
Protocol: Experimental Design. […] After treatment, cells were trypsinized, and stained with propidium iodide (PI) dye to measure DNA content of individual cells by flow cytometry. Output comprised histograms showing relative DNA content in 10,000 cells.
While compounds which cause greater than 20% of the cells to accumulate in S-phase at 100 nM are considered active, a larger percentage of cells may be accumulated in S-phase at lower doses depending on the Compound, as shown in FIG. 12 for example.

HT1080 xenografts = assay: Time course of tumor size and plasma human VEGF in HT1080 xenografts; format: in vivo, athymic nude mice
Protocol: Experimental Design. HT1080 cells (5×10^6 cells/mouse) were implanted subcutaneously in male athymic nude mice.
Tumor size was measured by calipers immediately pre-treatment and at the time of sacrifice on Day 1, 2, or 3 (5 mice per group per day). At sacrifice, the plasma was collected for assay of pathologic human VEGF concentration using an ELISA that recognizes human VEGF121 and VEGF165 (as described in Section 9.1.1.1).

[3] = 7-day oral toxicity study in dogs; format: in vivo
[4] = test system: VEGF189 and VEGF206 isoforms; assay: In-Cell Western and Western blot of matrix associated VEGF189/206 in HT1080 cells; format: cell-based, human; conditions: normoxic, 48 hours
Protocol: Experimental Design. HT1080 (human fibrosacoma) cell cultures were established under normoxic conditions (21% oxygen). HT1080 cells constitutively overproduce VEGF even under normoxic conditions. […] At the completion of treatment, the cells were washed and harvested. Cells were incubated with a primary antibody that recognizes the VEGF189 and VEGF206 isoforms. Infrared-dye labeled antibodies were applied secondarily, and the amounts of VEGF189 and VEGF206 were determined using the IN-CELL WESTERN® assay and ODYSSEY® infrared imaging system (Li-Cor, Lincoln, Nebr., USA); results are expressed as percentage inhibition relative to vehicle treated controls. Conventional Western blotting using the same primary antibody was also performed to confirm the presence of the matrix associated isoforms; for these experiments actin was used as a loading control. Actin is a ubiquitous housekeeping protein that is not known to be post transcriptionally regulated.

[5] = Quantitative whole-body autoradiography tissue distribution of 14C-Compound #10; format: in vivo; conditions: rats, single oral 50 mg/kg
Protocol: For the QWBA, the carcasses were prepared by immediately freezing them, embedding them in chilled carboxymethylcellulose, and freezing them into blocks. Appropriate cryomicrotome sections of the blocks at 40 μm thickness were collected on adhesive tape. Mounted sections were tightly wrapped and exposed on phosphorimaging screens along with plastic embedded autoradiographic standards. Exposed screens were scanned and the autoradiographic standard image data were sampled to create a calibrated standard curve. Specified tissues, organs, and fluids were analyzed.

CYP2D6 = molecular target: T1, CYP2D6 (Homo sapiens, UniProt P10635); assay: CYP inhibition in human hepatic microsomes or recombinant isoenzymes: CYP2D6; format: in vitro ADME
T1 construct: host or cells: human hepatic microsomes or human recombinant isoenzymes
Text: It is possible that in certain clinical trial subjects, such agents may need to be adjusted for dosing or replaced by alternative agents that are not metabolized by CYP2D6, particularly when such agents may have a low therapeutic index.

soluble VEGF isoforms = assay: ELISA of soluble VEGF production in nontransformed keratinocytes under hypoxia or normoxia; format: cell-based, human; conditions: normoxic, 72 hours
Protocol: Experimental Design. Nontransformed normal human keratinocyte cell cultures were established under normoxic conditions (21% oxygen). […] At the completion of treatment, cells were assessed for viability with an ATP assay and conditioned media were evaluated for VEGF protein levels by ELISA (as described in Section 9.1.1.1).

[6] = test system: SKNEP orthotopic xenografts; assay: Orthotopic SKNEP Ewing sarcoma tumor model (kidney capsule), tumor weight; format: in vivo; conditions: 5 weeks of treatment
Text: Experimental Design. In orthotopic tumor models, human tumor cells are implanted into the mouse in an organ that corresponds to the location from which the tumors arise. Such models may provide a better predictor of clinical efficacy than injection of tumors into the flanks of nude mice. See Hoffman, Invest. New Drugs 1999, 17(4):343-59. SY5Y neuroblastoma or SKNEP Ewing sarcoma tumor cells (1×10^6 cells/mouse) were implanted into the kidney capsule of female athymic nude mice according to published methods. See Huang et al., Proc. Natl. Acad. Sci. USA 2003, 100(13):7785-90. One week after implantation of each type of tumor, mice were divided into 2 groups and were administered a test Compound as shown in Table 21.
After 5 weeks of treatment, the mice were sacrificed, and the weights of the tumors were assessed.

HT1080 cells [7] = assay: Anchorage-independent colony formation of HT1080 cells in agar; format: cell-based, human; conditions: 10 and 50 nM, day 18; not statistically significant
Protocol: Experimental Design. HT1080 cells growing in monolayer were trypsinized, counted and suspended in a 0.35% agar noble/1× complete DMEM solution at 37° C. at a concentration of 2,500 cells/mL. One ml of this solution was layered over a semisolid base consisting of 0.5 mL of 0.75% agar noble/1× complete DMEM in a six well tissue culture plate. […] Tissue culture plates were then returned to the incubator and colonies were allowed to form. […] On day 18 the vehicle-treated wells had colonies of sufficient size to count (>50 cells/colony). At this time, for increased visualization, 1.5 mL of a 2× working volume of (3-(4,5-Dimethylthiazol-2-yl)-2,5-diphenyltetrazolium bromide, a tetrazole) (MTT, Invitrogen, Cat #C35007) was added and the plates were returned to the incubator for 2 hours until colonies were stained by conversion of the MTT to purple formazan crystals. Colonies were then visually counted under a dissecting microscope.

HT1080 cells [8] = assay: Kinetics of S-phase transit by BrdU incorporation in HT1080 cells; format: cell-based, human; conditions: HT1080, 18-hour treatment
Protocol: Experimental Design. HT 1080 cells are exposed to BrdU (bromodeoxyuridine, a synthetic nucleoside that is an analogue of thymidine and is incorporated into DNA during the S phase of cell division) (FITC BrdU Flow Kit, BD Pharmingen catalog #552598). Cells are grown and treated as described in Section 9.3.1.3 above with the exception that one hour prior to harvesting by trypsinization, BrdU (final concentration 1 μM) is added to each culture for 1 hour. Cells actively replicating DNA during this brief time incorporate the BrdU into the DNA, which can then be quantitated. BrdU content is quantitated with using the FITC BrdU Flow Kit as instructed by the manufacturer. The process includes fixation (paraformaldehyde) and DNA staining with 7-AAD (7-amino-actinomycin D) followed by incubation with a fluoro-tagged anti-BrdU antibody that specifically recognizes BrdU incorporated into DNA. Dual channel FACS analysis permits assessment of both the DNA content of individual cells and the rate of transit across the S-phase, which is assessed based upon BrdU incorporation over the one hour treatment period.

T1 sequence (P10635 whole entry): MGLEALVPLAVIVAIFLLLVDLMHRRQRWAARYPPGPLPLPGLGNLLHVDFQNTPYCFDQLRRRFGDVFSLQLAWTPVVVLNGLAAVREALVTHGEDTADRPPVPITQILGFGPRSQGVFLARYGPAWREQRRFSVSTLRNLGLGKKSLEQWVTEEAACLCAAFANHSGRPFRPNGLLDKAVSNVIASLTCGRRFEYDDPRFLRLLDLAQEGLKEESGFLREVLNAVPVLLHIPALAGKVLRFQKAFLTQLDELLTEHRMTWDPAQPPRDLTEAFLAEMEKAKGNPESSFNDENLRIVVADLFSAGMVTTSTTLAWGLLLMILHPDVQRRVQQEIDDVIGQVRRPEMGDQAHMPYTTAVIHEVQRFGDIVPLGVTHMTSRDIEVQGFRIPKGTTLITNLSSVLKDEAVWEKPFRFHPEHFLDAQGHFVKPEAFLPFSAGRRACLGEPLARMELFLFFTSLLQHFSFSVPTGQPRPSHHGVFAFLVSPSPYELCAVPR

COc1ccc(C2c3[nH]c4ccc(Cl)cc4c3CCN2C(=O)Oc2ccc(Cl)cc2)cc1 (racemic) [Compound #10]
genotoxic effects [1]: no evidence of genotoxic effects | concentration from which an accumulation of cells in S phase can be observed (HT1080 cells [2]): ≥ 1 nM | cell cycle distribution, DNA content (in words) (HT1080 cells [2]; Compound #10 0.3 nM to 100 nM, Compound 1205 10 nM): induced a redistribution of the cycling characteristics of the cell population | pathologic plasma human VEGF concentrations (in words) (HT1080 xenografts; Days 2 and 3, 10 mg/kg oral QD): continued to decline | pathologic plasma human VEGF levels (in words) (HT1080 xenografts; by Day 1): numerically lower than in control animals | reducing tumor derived plasma VEGF levels, comparison (in words) (HT1080 xenografts; by Day 3 of treatment): as active as bevacizumab and more effective than doxorubicin | NOAEL at 7 days ([3]; both sexes, beagle, dog, in vivo, dogs, oral capsules): 60 mg/kg/day | dose at which exposures were maximal ([3]; dogs, 10, 30, or 60 mg/kg/dose BID, 7 days): 30 mg/kg/dose BID | treatment-related clinical finding ([3]; dogs, males and females, 10, 30, or 60 mg/kg/dose BID, 7 days): increased incidence and frequency of soft stools | NOAEL for 7-days ([3]; dogs, oral capsules): 30 mg/kg/dose BID | inhibition of matrix associated VEGF189 and VEGF206 isoforms (in words) [4]: potent concentration-dependent inhibition | blood-brain barrier penetration (in words) [5]: penetrates the blood-brain barrier | signs of toxicity [5]: no overt signs of toxicity | inhibition of CYP2D6 isoenzyme (in words) (CYP2D6): inhibits the activity | decrease in VEGF concentrations in conditioned media (soluble VEGF isoforms): 21% | tumor growth (tumor weight) (in words) [6]: completely prevented growth | number of colonies formed (in words) (HT1080 cells [7]): modest trend toward a reduced number of colonies | BrdU incorporation by individual cells during the one-hour period vs DMSO control (in words) (HT1080 cells [8]): incorporated less BrdU | percentage of cells residing in S-phase (in words) (HT1080 cells [8]; increasing doses): net increase

Source: US8697662B2, “Methods for treating Kaposi sarcoma” (PTC Therapeutics, Inc., priority 2009, dated 2014)
